From US10106777B2, “Directed differentiation and maturation of pluripotent cells into hepatocyte like cells by modulation of Wnt-signalling pathway” (Takara Bio Europe AB, priority 2010, dated 2018)
Values belong to the compound of their own block, whether it stands above or below them.

Assays:
hiPS cells [1] = test system: hiPS cells
[2] = test system: feeder free cultured hPS cells
Procedure: Feeder free cultured hPS cells with and without the GSK3 inhibitor, as well as an alternative method where a split media as described in FIG. 3C were compared for their hepatic profile and homogeneity.
A) Results from Activity assay of CYP1A and CYP3A measured by conversion of paracetamol and OH_midazolam respectively.
hESCs cultured under feeder free conditions were incubated in media supplemented with Activin A. The cells were then induced into hepatocytes by differentiating them to hepatic progenitor cells and then to more mature hepatocyte like cells. Cells cultured with and without the GSK3 inhibitor were compared for their hepatic profile and homogeneity.

hiPS cells [3] = test system: hiPS cells; remark: listed apart in the source
Procedure: FIGS. 5A and B. hiPS cells cultured with and without the GSK3 inhibitor were compared for their hepatic profile and homogeneity. Where a GSK3 inhibitor was added it was added at a later stage of the differentiation, according to FIG. 3. Derivation of hepatocytes from human induced pluripotent stem cells (hiPS).
The cells were 30 days, n=8. hiPS vs hiPS+BIO.
The undifferentiated hiPS cells were cultured in Activin A supplemented media to stimulate initial differentiation into partly differentiated cells. The hiPS derived partly differentiated cells were then passaged (to plates coated with 0.1% Gelatin or Matrigel 0.016 mM) and induced to hepatic progenitor cells and then to hepatocyte like cells in media with and without BIO supplementation, see FIG. 3 A)-B).
The hiPS cells were cultured on mEFs until they were confluent. The cells were washed twice in PBS+/+ and treated with Activin A containing medium (See FIG. 3 a-b). The cells adapted an endoderm like morphology around day 3. When the majority of the cells were partly differentiated, the cells were exposed to media supplemented with factors inducing the cells into hepatocyte-like cells (See FIG. 3A)-B)) plus or minus BIO.

Beta-catenin = assay: Immunolocalisation of Beta-catenin in hES-HEP; type: cell-based, human
Excerpt: C) Immunolocalisation of Beta-catenin and Dapi staining of hES-HEP-BIO (A) and hES-HEP+BIO (B) Beta-catenin is localized at the cell membrane in hES-HEP cultures not treated and treated with BIO. […] Day 21, 20×

[4] = test system: hESC derived hepatocytes (hESC-HEP); assay: Morphological observation of purity and homogeneity of hESC-HEP cultures; type: cell-based, human
Procedure: FIGS. 8A-E. Differentiation of hESC derived hepatocytes in the presence of GSK3 inhibitor from day 3 purifies hepatocytes from other cell types.
A-C show hESC-HEP at day 17, differentiated by protocol i or ii according to FIG. 2. D-E show hESC-HEP at day 15, differentiated by protocol iii or vi according to FIG. 2,
B) 1 μM BIO day 3-9, protocol ii.
C) 5 μM BIO day 3-9, protocol ii.
D) 0 μM BIO day 3-9, 1.5 μM BIO day 10-15 protocol iii,
E) 3.5 μM BIO day 3-9, 1.5 μM BIO day 10-15 protocol vi.
A and B show hESC-HEP cultures which are over grown by another cell type where as in C the majority of cells in the culture are hepatocyte-like cells. E represent a purer hESC-HEP culture than D. White arrow: hepatocyte-like cells, black arrow: other cell type than hepatocyte-like cells. Scale bar: 100 μm.
(§1) Thus it appears advantageous to add GSK-3 inhibitors at a later stage of differentiation to avoid massive cell death seen when it is added at day 3. […] In addition, GSK3 inhibitors at this stage may contribute/stimulate to hepatic induction of the competent endoderm.

MEF cultured hESC = assay: Cell death on addition of BIO at day 3 of differentiation; type: cell-based, human
Procedure: as §1

[5] = test system: hESC derived hepatocytes (hESC-HEP)
Procedure: Analysis are performed at day 16-18 (n=7-8), 20-21 (n=5) and 25 (n=2) respectively, mean±SD.
MEF-cultured hESCs (hES cells cultured on feeder cells) were differentiated into hepatocyte-like cells according to examples 4, 8 and 9, thus comparing the absence of BIO, a GSK3-inhibitor (Example 4), to the influence of BIO during the maturation step (day 10-26) in maturation medium I and II (MM I and MM II)(Example 8 and 9 respectively). Before adding the first medium, ID day 0-2, the cultures were washed thoroughly with PBS, twice. The different mediums were prepared freshly and added day 0 (DE day 0-1), 2 (DE day 2-4), 4 and 7-10 every other to third day (VH1), 10-26 every second or third day (MMI or MM II). […] Cells were counted in a Bürker chamber and seeded out in 0.1% gelatine coated culture units (e.g. in 24-well plates) at a cell density of 150 to 250K cells per cm^2.
At day 16, 18, 20, 21 and 25 hESC-HEP cultures were analyzed for cytochrome P450 1A activity by incubating the substrate Phenacetine to a final concentration of 26 μM in Phenol Red-free Williams Medium E, supplemented with 0.1% Penicilline-Streptomycin 2 mM L-Glutamine and 25 mM Hepes. […] Samples were analysed by Liquid chromatography-mass spectrometry (LC-MS) LCMS for presence of the metabolite Paracetamol, biotransformed by the cytochrome p450 enzymes Cyp1A2, 1A1.

hES cells [6] = test system: hES cells
Procedure: FIGS. 6A and B. hES cells cultured with and without the GSK3 inhibitor were compared for their hepatic profile and homogeneity, as described in examples 12 and 13. Where a GSK3 inhibitor was added it was added at a later stage of the differentiation, according to FIG. 3B.
A) Results from Activity Assay of CYP1A, 3A and 2C. […] The cells were 30 days, n=8. hPS vs hPS+BIO.B)

[7] = test system: feeder free cultured hPS cells; assay: Hepatic gene marker expression in hepatocyte-like cells from feeder free hESC; type: cell-based, human; conditions: with vs without GSK3 inhibitor
Procedure: The split media (SM) gave the same levels as without split media. Two controls were used undifferentiated cells cultured feeder free (UD feeder free) and a perpetual cell line from a hepatocellular carcinoma (HepG2). The levels of AFP, KRT18 (Keratin 18) and KRT19 (Keratin 19) indicate that the cells are maintained in a stage where they still have the ability to proliferate. The cells were 23 days when they were analyzed, n=3.

hES cells [8] = test system: hES cells; remark: listed apart in the source
Procedure: Where a GSK3 inhibitor was added it was added at a later stage of the differentiation, according to FIG. 3B.
B) Results of hepatic markers from Q-PCR of the same cells that were analysed by Activity assay (Q-PCR hPS+/−BIO) n=4.

[9] = test system: hESC-HEP (cell-line SA002)
Procedure: Qrt-PCR data is presented as fold change gene expression levels of HepG2 except for BSEP, which graph show fold change of calibrator. N=2-3, mean±SEM.
hESC-HEP were derived from cell-line SA002 cultures on mEF-layer according to Example 9, FIG. 2, protocol iii (absence of BIO between day 3-10) or Example 11, FIG. 2, protocol iv (presence of 3.5 μM BIO between day 3-10). Total RNA was collected and isolated from the two hES-HEP cultures at day 21, 24, 26 and 28 by using RNA isolation kit from Qiagene. Quantitative reverse transcriptase PCR, QrtPCR, by using Taqman probes, was performed for the following hepatic marker genes: phase I drug metabolizing enzymes; CYP (cytochrome P450) 3A4, 3A5, 3A7, 2C9, phase II drug metabolizing enzymes GSTA1 (glutation-S-transferas A1), UGT2B7 (UDP glucuronosyltransferase 2B7), phase III, transporters; MRP2 (multi-drug residence protein 2), BSEP (bile salt export pump), and general hepatic markers; A1AT (alpha-1 antitrypsin), ALB (albumin) and TAT (tyrosine-amino transferas). All data was normalised to the house-keeping gene CREB. RNA from HepG2 cultures was included and data is presented as fold change of HepG2. […] Thus, BSEP expression is instead presented as fold change of a so called calibrator which contains RNA from different sources.

[10] = test system: UDP-glucuronyltransferases (UGTs); assay: UGT metabolic activity in hESC-HEP from feeder-free hESC; type: cell-based, human
Excerpt: FIG. 11. Relative expression levels of UGT hepatic metabolic markers in hESC-HEP generated with or without Wnt-signalling modulation by GSK-3 inhibitor BIO during endoderm to hepatocyte-like cell phase. FC=fold change relative expression, control set […] to 1 for each example. Graphs show expression levels in cells treated with one of three differentiation/maturation protocols (see example 21) and +/−GSK-3 inhibitor treatment for activity of UGTs on specific UGT substrates: (UGT1A1,[8-estradiol]); (UGT2B, [8-estradiol]; (UGT1A6, [1-Napthol]), (UGT1A9, [Propofol]), (UGT2B7, [Naloxone]). A non-specific control (Methylumbelliferone) was also included. n=number of experiments averaged to obtain results.
Metabolic activity of hESC-HEP derived from hESCs cultured in feeder-free conditions (see Examples 12-14) was measured to determine the effect of GSK-3 inhibition during development and maturation by examining the activity of several UDP-glucuronyltransferases (UGTs) (enzymes that participate in the metabolism of many drugs). Activity of these UGTs was tested via several substrates, namely: β-estradiol (UGT1A1, 3-glucuronide), 1-naphthol (UGT1A6), propofol (UGT1A9), and naloxone (UGT2B7). A non-specific control (Methylumbelliferone) was also included (see FIGS. 12A-B). hESC-HEPs were differentiated essentially according to Example 12, up to day 7. […]

hESC-HEP [11] = assay: Hepatic marker expression in hESC-HEP, GSK-3 inhibitors at later stage (from day 10); type: cell-based, human; conditions: GSK-3 inhibitor from day 10, compared to BIO
Excerpt: FIGS. 12A and B. Relative expression levels of hepatic markers in hESC-HEP generated with modulation of Wnt-signalling by GSK-3 inhibitors other than BIO during later maturation period (day 10 onwards). Treatments shown include: hESC-HEP (negative control; cells never exposed to GSK-inhibitor during differentiation), BIO, SB216763, Kenpaullone, Indirubin-3-O; also included is a second negative control undifferentiated hESC cells (hESC). […] GSK-3 inhibitors were present only during later differentiation (from day 10 onwards); also included is a further negative control graph showing the expression levels of a housekeeping gene (Creb) across the various samples.
Furthermore, differentiating cells were exposed to GSK-3 inhibitors only during later (from day 10) stages of differentiation. Three alternative GSK-3 inhibitors were tested alongside BIO to determine effectiveness in inducing hepatic marker expression (SB216763, Kenpaullone and Indirubin-3-O) and results were compiled both for Phase I and Phase II enzymes and hepatic markers, with two negative controls (hESC-HEP not exposed to GSK-3 inhibition during differentiation, and undifferentiated hESC cells). […]

hESC-HEP [12] = assay: Hepatic marker expression in hESC-HEP, GSK-3 inhibitors at mid and late stage; type: cell-based, human; conditions: Kenpaullone 0.23 μM days 3-9, 2.5 μM days 10-23, compared to BIO
Excerpt: FIGS. 13A and B. Relative expression levels of hepatic markers in hESC-HEP generated with modulation of Wnt-signalling by GSK-3 inhibitors other than BIO during both mid (days 3-9) and late stage (days 10-23) differentiation. Treatments shown include: hESC-HEP (negative control; cells never exposed to GSK-inhibitors), BIO, SB216763, Kenpaullone, Indirubin-3-O; also included is a second negative control undifferentiated hESC cells (hESC); also included is a further negative control graph showing the expression levels of a housekeeping gene (Creb) across the various samples.
Differentiating cells were exposed to GSK-3 inhibitors during both mid (days 3-9) and late (from day 10-23) stages of differentiation. Three alternative GSK-3 inhibitors were tested alongside BIO to determine effectiveness in inducing hepatic marker expression (SB216763, Kenpaullone and Indirubin-3-O) and results were compiled both for Phase I enzymes and Phase II enzymes and hepatic markers, with two negative controls (hESC-HEP not exposed to GSK-3 inhibition during differentiation, and undifferentiated hESC cells). During days 3-9 of differentiation, concentrations of GSK-3 inhibitors used were as follows: BIO 3.5 μM, SB216763 34 nM, Kenpaullone 0.23 μM and Indirubin-3-O 22 nM. […]

[13] = test system: hESC-HEP cultures (cell line SA002); assay: Functional CYP1A activity in hESC-HEP cultures with NaB together with BIO; type: cell-based, human; conditions: NaB 1 mM together with BIO 1.4 μM at day 21-25, vs parallel cultures without NaB
Procedure: FIG. 9. […] Analysis is performed day 24-25, n=1.
Cell line SA002 from mEF cultures was used as starting material.

SMILES: O=C1Nc2cc(Br)ccc2/C1=C1/Nc2ccccc2/C1=N\O [BIO, (2′Z,3′E)-6-Bromoindirubin-3′-oxime]
- expression of CYP1A1, CYP1A2, CYP3A4 and CYP7A1 (hiPS cells [1]): clear increase
- levels of CYP2C9 (hiPS cells [1]): maintained high
- mRNA of CD44, AFP, CK18, CK19, CYP1A1, CYP1A2, CYP3A4, CYP2C9, CYP7A1, Albumin, OATP2, A1AT, MRP2 (hiPS cells [1]): Increased
- mRNA of CYP1A1, CYP1A2, CYP3A4, CYP2C9, CYP7A1, MRP2, CD44, AFP, CK18, CK19 (hiPS cells [1]): Increased
- AAT (hiPS cells [1]; hiPS+/−BIO, n=4): maintained on a high level
- AFP levels (hiPS cells [1]; hiPS+/−BIO, n=4): decreased
- Albumin (hiPS cells [1]; hiPS+/−BIO, n=4): maintained at a level high compared to known protocols
- transporters such as MRP2, Oct-1, GSTA1, BCEP and OATP2 (hiPS cells [1]; hiPS+/−BIO, n=4, vs HepG2): maintained at levels significantly higher than HepG2
- maturity of hiPS derived cells (Q-PCR, immunocytochemistry, Activity Assay) (hiPS cells [1]; media supplemented with BIO vs absence of GSK-3 inhibitor): became more mature
- metabolic activity (FIG. 4A) [2]: higher
- CYP1A activity (hiPS cells [3]): Increased
- CYP3A activity (hiPS cells [3]): Increased
- activity of CYP1A (hiPS cells [3]): increased
- activity of CYP3A (hiPS cells [3]): increased
- metabolic activity (FIG. 5A) (hiPS cells [3]): greater metabolic activity
- Beta catenin in the cytoplasm and nuclei (Beta-catenin; BIO treated hES-HEP cultures, Day 21): commonly observed
- beta-catenin localisation (Beta-catenin; upon BIO treatment): translocate from cell membrane to nucleus
- culture purity (morphology) ([4]; 3.5 μM BIO from day 3 (Example 11) vs untreated (Example 9)): more purified hESC-HEP compared to untreated cultures
- culture homogeneity (morphology) ([4]; 5 μM BIO from day 3, surviving cells passaged day 4): highly purified and homogenous culture of hESC-HEP
- final purity of the cell populations ([4]; BIO addition at a later stage (day 10+)): greater final purity
- culture homogeneity (morphology) ([4]; low concentration (1 μM) of BIO, day 3-9): highly heterogeneous cultures where hardly any hepatocyte-like cells were observed
- cell death (MEF cultured hESC; 3.5 μM BIO from day 3, compared to 5 μM BIO): less dramatic cell death
- cell death (MEF cultured hESC; 5 μM BIO day 3): dramatic cell death
- Cyp1A activity over time [5]: increased during time
- activity of CYP1A (hES cells [6]): increased
- activity of CYP2C (hES cells [6]): increased
- activity of CYP3A (hES cells [6]): increased
- hepatic gene marker expression (FIG. 4B) [7]: higher
- expression of CYP1A1, CYP1A2, CYP3A4, CYP2C9 and CYP7A1 (hES cells [8]): clear increase
- AAT (hES cells [8]; hPS+/−BIO, n=4): increase
- transporters such as MRP2, Oct-1, GSTA1, BCEP and OATP2 (hES cells [8]; hPS+/−BIO, n=4): maintained at levels showing a maturation
- A1AT expression ([9]; BIO supplemented at day 3): strong increase at day 28
- ALB expression ([9]; BIO supplemented at day 3): decreased at day 26
- GSTA1 and UGT2B7 expression ([9]; BIO supplemented at day 3): increased expression
- MRP2 and BSEP expression ([9]; BIO supplemented at day 3): increased expression
- TAT expression levels ([9]; with BIO vs without BIO, all days): higher expression levels
- increase of UGT1A1 activity ([10]; +/− BIO 1.4 μM days 14-25): much greater than for others
- activity of most of the UGTs ([10]; +/− BIO 1.4 μM days 14-25, three differentiation protocols): greater activity

- expression of most of the Phase I enzymes and hepatic markers (hESC-HEP [11]): higher levels of expression than BIO
- expression of most of the Phase I enzymes (hESC-HEP [12]): higher levels of expression than BIO
SMILES: O=C1Cc2c([nH]c3ccc(Br)cc23)-c2ccccc2N1 [Kenpaullone, 9-Bromo-7,12-dihydro-indolo[3,2-d][1]benzazepin-6(5H)-one]

SMILES: CCCC(=O)[O-].[Na+] [NaB, Sodium Butyrate]
- CYP1A activity [13]: increased
